Reference: article PMC10398712 (Journal of medicinal chemistry, 2023)
Read-outs that look alike come from different tables or passages of the source. Marks after values point to notes of the source that are not given here. Residues, ends and D or L forms follow the SMILES beside them. *: point of attachment. Cbz = O=C(OCc1ccccc1)*

Legend:
CRBN = conditions: cited from earlier work
[1] = cited from earlier work
CRBN-DDB1 complex = CRBN-DDB1 complex (Homo sapiens, UniProt Q96SW2); test: fluorescence polarization; type: binding; conditions: for displacement of fluorescence probe (relative binding): single concentration of 1 μM, tested three times
CRBN-DDB1 complex, sequence (Q96SW2 whole entry): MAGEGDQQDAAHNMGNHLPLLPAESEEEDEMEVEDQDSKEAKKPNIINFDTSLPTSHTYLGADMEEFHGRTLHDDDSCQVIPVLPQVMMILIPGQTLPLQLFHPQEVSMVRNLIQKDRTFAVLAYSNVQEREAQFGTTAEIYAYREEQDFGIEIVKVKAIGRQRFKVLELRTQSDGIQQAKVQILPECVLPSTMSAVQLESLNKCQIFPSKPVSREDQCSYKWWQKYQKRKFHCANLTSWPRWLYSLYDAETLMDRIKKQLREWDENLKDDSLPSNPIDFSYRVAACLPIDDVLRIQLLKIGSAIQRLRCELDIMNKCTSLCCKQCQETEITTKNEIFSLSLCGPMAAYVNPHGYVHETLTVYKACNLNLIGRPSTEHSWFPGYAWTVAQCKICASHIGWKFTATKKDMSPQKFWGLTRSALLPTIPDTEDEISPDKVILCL
CRBN-DDB1 complex, sequence (Q16531 whole entry partner): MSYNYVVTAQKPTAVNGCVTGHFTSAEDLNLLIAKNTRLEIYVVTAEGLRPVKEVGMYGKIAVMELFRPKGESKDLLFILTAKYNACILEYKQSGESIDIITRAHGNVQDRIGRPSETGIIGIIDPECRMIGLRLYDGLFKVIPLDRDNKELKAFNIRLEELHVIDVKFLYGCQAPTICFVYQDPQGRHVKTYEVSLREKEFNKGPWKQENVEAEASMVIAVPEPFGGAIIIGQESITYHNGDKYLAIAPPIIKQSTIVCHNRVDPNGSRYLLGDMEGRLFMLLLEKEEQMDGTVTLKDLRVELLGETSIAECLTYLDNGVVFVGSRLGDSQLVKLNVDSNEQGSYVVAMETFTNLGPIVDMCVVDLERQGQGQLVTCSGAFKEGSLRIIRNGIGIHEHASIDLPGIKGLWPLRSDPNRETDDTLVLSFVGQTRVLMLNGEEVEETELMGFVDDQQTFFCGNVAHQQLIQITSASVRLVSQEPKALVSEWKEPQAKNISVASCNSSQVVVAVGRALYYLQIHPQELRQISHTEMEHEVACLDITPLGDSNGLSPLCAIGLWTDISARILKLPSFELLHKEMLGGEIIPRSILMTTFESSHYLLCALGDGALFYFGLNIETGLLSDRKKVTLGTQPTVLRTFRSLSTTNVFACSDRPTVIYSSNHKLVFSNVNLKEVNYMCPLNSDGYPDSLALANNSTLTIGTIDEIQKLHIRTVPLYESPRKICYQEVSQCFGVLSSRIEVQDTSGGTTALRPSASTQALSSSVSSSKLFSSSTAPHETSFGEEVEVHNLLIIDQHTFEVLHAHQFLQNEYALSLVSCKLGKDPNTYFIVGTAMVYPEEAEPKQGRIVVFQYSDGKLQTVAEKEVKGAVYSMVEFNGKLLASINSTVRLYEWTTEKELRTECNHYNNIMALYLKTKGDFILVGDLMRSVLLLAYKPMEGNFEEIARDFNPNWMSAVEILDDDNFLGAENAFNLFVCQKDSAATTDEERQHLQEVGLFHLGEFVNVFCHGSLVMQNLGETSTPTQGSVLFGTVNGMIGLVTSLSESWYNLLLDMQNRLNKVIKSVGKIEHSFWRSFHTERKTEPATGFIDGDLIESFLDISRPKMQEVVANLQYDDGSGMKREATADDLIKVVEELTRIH

IKZF3 = test: Western blot of IKZF3 in MV4; type: cell-based, human; conditions: MV4;11 cells, 10 and 1 μM, 24 h
IKZF1 = test: Western blot of IKZF1 in MV4; type: cell-based, human; conditions: MV4;11 cells, 10 and 1 μM, 24 h
[2] = ring opening hydrolysis stability in buffer with different pHs; type: physicochemical; conditions: for pH=1.0, ring opening hydrolysis, percent compound remaining: pH 1.0, after 24 h; for pH=7.4, ring opening hydrolysis, percent compound remaining: pH 7.4 buffer, after 24 h, 37°C
GSPT1 = test: Western blot of GSPT1 in MV4; type: cell-based, human; conditions: MV4;11 cells, 10 and 1 μM, 24 h
MV4;11 cells [3] = test: AlamarBlue cell viability; type: cell-based, human; conditions: 72 h
BRD4 = BRD4 (Homo sapiens, UniProt O60885); test: Western blot of BRD4; conditions: for effect of pretreatment on BRD4 degradation induced by 13: pretreated 1 h, then 13 for 3 h; for degradation of BRD4: 24 h
MV4;11 cells [4] = test: flow cytofluorimetric cell cycle analysis; type: cell-based, human; conditions: 48 h
caspase 3 cleavage = test: Western blot of caspase 3 and cleaved caspase 3 in MV4; conditions: MV4;11 cells, 10 nM to 10 μM, 24 h
MV4;11 cells [5] = test: flow cytofluorimetric apoptosis analysis; type: cell-based, human; conditions: 48 h
[6] = in human blood; cited from earlier work
[7] = in-vivo in humans; cited from earlier work

For `O=C1CC[C@H](N2C(=O)c3ccccc3C2=O)C(=O)N1` (single isomer, unassigned) [(S)-enantiomeric thalidomide], the “binding affinity to CRBN relative to the (R)-enantiomer” value (CRBN) is given as “at least 10 fold”.

In the case of `[2H]C1(N2C(=O)c3ccccc3C2=O)CCC(=O)NC1=O` (stereo not drawn) [Compound 1D], the “racemization relative to thalidomide” value [1] is given as “about five times slower than thalidomide”.

With `O=C1CCN(c2ccccc2O)C(=O)N1` [Compound 3A, 1-(2-hydroxyphenyl)dihydropyrimidine-2,4(1H,3H)-dione] the “displacement of fluorescence probe (relative binding)” value (CRBN-DDB1 complex) was “almost completely lost the binding”.

With `Cc1ccccc1N1CCC(=O)NC1=O` [Compound 3B, 1-(o-tolyl)dihydropyrimidine-2,4(1H,3H)-dione] the “increase of affinity by ortho-Me relative to parent PDHU 2” value (CRBN-DDB1 complex; FP assay) was “about 2.5 times”.

With `COc1ccccc1N1CCC(=O)NC1=O` [Compound 3C, 1-(2-methoxyphenyl)dihydropyrimidine-2,4(1H,3H)-dione] the “displacement of fluorescence probe (relative binding)” value (CRBN-DDB1 complex) was “decreased the binding”.

With `Cc1c(C#CCNC(=O)OC(C)(C)C)cccc1N1CCC(=O)NC1=O` [Compound 6F, tert-butyl (3-(3-(2,4-dioxotetrahydropyrimidin-1(2H)-yl)-2-methylphenyl)prop-2-yn-1-yl)carbamate] the “degradation of IKZF3” value (IKZF3) was “do not induce the degradation”, the “degradation of IKZF1” value (IKZF1) was “do not induce the degradation” and the “pH=1.0, ring opening hydrolysis, percent compound remaining” value [2] was >99^[g] %. For the same molecule, the “pH=7.4, ring opening hydrolysis, percent compound remaining” value [2] was greater than 99% and the “degradation of GSPT1” value (GSPT1) was “do not induce the degradation”.

For `Cc1c(OCC(=O)N2CCCCC2)cccc1N1CCC(=O)NC1=O` [Compound 9, 1-(2-methyl-3-(2-oxo-2-(piperidin-1-yl)ethoxy)phenyl)dihydropyrimidine-2,4(1H,3H)-dione], the “degradation of IKZF3” value (IKZF3) was “do not induce the degradation”, the anti-proliferation activity (MV4;11 cells [3]; at up to 100 μM) was “did not show any anti-proliferation activity” and the “effect of pretreatment on BRD4 degradation induced by 13” value (from here on “effect of pretreatment”) (BRD4; MV4;11 cells) was “abolished the BRD4 degradation induced by 13”. The “degradation of IKZF1” value (IKZF1) was “do not induce the degradation”, the “pH=1.0, ring opening hydrolysis, percent compound remaining” value [2] was greater than 99% and the “pH=7.4, ring opening hydrolysis, percent compound remaining” value [2] was greater than 99%. For the same molecule, the “degradation of GSPT1” value (GSPT1) was “do not induce the degradation”.

With `CCNC(=O)COc1cccc(N2CCC(=O)NC2=O)c1C` [Compound 10, 2-(3-(2,4-dioxotetrahydropyrimidin-1(2H)-yl)-2-methylphenoxy)-N-ethylacetamide] the “degradation of IKZF3” value (IKZF3) was “do not induce the degradation”, the “degradation of IKZF1” value (IKZF1) was “do not induce the degradation” and the “pH=1.0, ring opening hydrolysis, percent compound remaining” value [2] was greater than 99%. For the same molecule, the “pH=7.4, ring opening hydrolysis, percent compound remaining” value [2] was greater than 99% and the “degradation of GSPT1” value (GSPT1) was “do not induce the degradation”.

With `CC(=O)NCCC#Cc1cccc(N2CCC(=O)NC2=O)c1C` [Compound 11, N-(4-(3-(2,4-dioxotetrahydropyrimidin-1(2H)-yl)-2-methylphenyl)but-3-yn-1-yl)acetamide] the “degradation of IKZF3” value (IKZF3) was “do not induce the degradation”, the “degradation of IKZF1” value (IKZF1) was “do not induce the degradation” and the “pH=1.0, ring opening hydrolysis, percent compound remaining” value [2] was greater than 99%. For the same molecule, the “pH=7.4, ring opening hydrolysis, percent compound remaining” value [2] was greater than 99% and the “degradation of GSPT1” value (GSPT1) was “do not induce the degradation”.

For `Cc1sc2c(c1C)C(c1ccc(Cl)cc1)=N[C@@H](CC(=O)NCCCC#Cc1cccc(N3CCC(=O)NC3=O)c1C)c1nnc(C)n1-2` [Compound 12C, (S)-2-(4-(4-chlorophenyl)-2,3,9-trimethyl-6H-thieno[3,2-f][1,2,4]triazolo[4,3-a][1,4]diazepin-6-yl)-N-(5-(3-(2,4-dioxotetrahydropyrimidin-1(2H)-yl)-2-methylphenyl)pent-4-yn-1-yl)acetamide], the “degradation of BRD4” value (BRD4; in MV4;11 and LNCAP, 1.0 and 0.1 μM) was “showed obviously BRD4 degradation activity”.

With `Cc1sc2c(c1C)C(c1ccc(Cl)cc1)=N[C@@H](CC(=O)NC1CCN(C(=O)COc3cccc(N4CCC(=O)NC4=O)c3C)CC1)c1nnc(C)n1-2` [Compound 13, (S)-2-(4-(4-chlorophenyl)-2,3,9-trimethyl-6H-thieno[3,2-f][1,2,4]triazolo[4,3-a][1,4]diazepin-6-yl)-N-(1-(2-(3-(2,4-dioxotetrahydropyrimidin-1(2H)-yl)-2-methylphenoxy)acetyl)piperidin-4-yl)acetamide] the cell cycle effect (MV4;11 cells [4]) was “induce G1 phase arrest, decrease the cell population in S phase”, the “caspase 3 cleavage” value (caspase 3 cleavage) was “successful in inducing caspase 3 cleavage” and the cell apoptosis (MV4;11 cells [5]) was “induced cell apoptosis in a dose-dependent manner”.

With `Cc1sc2c(c1C)C(c1ccc(Cl)cc1)=N[C@@H](CC(=O)NC1CCN(C(=O)COc3cccc(N4CCC(=O)N(C)C4=O)c3C)CC1)c1nnc(C)n1-2` [Compound 13NT, (S)-2-(4-(4-chlorophenyl)-2,3,9-trimethyl-6H-thieno[3,2-f][1,2,4]triazolo[4,3-a][1,4]diazepin-6-yl)-N-(1-(2-(2-methyl-3-(3-methyl-2,4-dioxotetrahydropyrimidin-1(2H)-yl)phenoxy)acetyl)piperidin-4-yl)acetamide] the “degradation of BRD4” value (BRD4; MV4;11 cells, several different concentrations) was “no degradation activity of BRD4 was observed”.

With `Cc1sc2c(c1C)C(c1ccc(Cl)cc1)=N[C@@H](CC(=O)OC(C)(C)C)c1nnc(C)n1-2` [JQ1, reference compound] the anti-proliferation activity (MV4;11 cells [3]) was “weaker anti-proliferation activity than 13, but higher activity than compound 13NT”.

For `Nc1cccc2c1CN(C1CCC(=O)NC1=O)C2=O` (stereo not drawn) [Lenalidomide, lenalidomide, reference compound], the “pH=1.0, ring opening hydrolysis, percent compound remaining” value [2] was greater than 99% and the “pH=8.8, ring opening hydrolysis, percent compound remaining” value ([2]; pH 8.8, after 24 h) was 0%.

With `CC(C)C[C@@H](C=O)NC(=O)[C@H](CC(C)C)NC(=O)[C@H](CC(C)C)NC(=O)OCc1ccccc1` [MG132, reference compound] (Cbz-Leu-Leu-Leu-aldehyde) the “effect of pretreatment” value (BRD4; MV4;11 cells) was “abolished the BRD4 degradation induced by 13”.

With `NS(=O)(=O)OC[C@@H]1C[C@@H](n2ccc3c(N[C@H]4CCc5ccccc54)ncnc32)C[C@@H]1O` [MLN4924, reference compound] the “effect of pretreatment” value (BRD4; MV4;11 cells) was “abolished the BRD4 degradation induced by 13”.

For `O=C1CCC(N2C(=O)c3ccccc3C2=O)C(=O)N1` (stereo not drawn) [thalidomide], the racemization half-life [6] is given as ~ 2.0 h and the racemization half-life [7] is given as ~ 5.0 h.
